ChEMBL document CHEMBL3352509, “Cyclic tertiary sulfamates: selective inhibition of the tumor-associated carbonic anhydrases IX and XII by N- and O-substituted acesulfame derivatives” (Eur J Med Chem, 2014)

Tests used:
Carbonic anhydrase 12 = Carbonic anhydrase 12 (Homo sapiens, UniProt O43570); experiment: Inhibition of human recombinant carbonic anhydrase 12 by stopped flow CO2 hydration method
Carbonic anhydrase 1 = Carbonic anhydrase 1 (Homo sapiens, UniProt P00915); experiment: Inhibition of human recombinant carbonic anhydrase 1 by stopped flow CO2 hydration method
Carbonic anhydrase 1, sequence (P00915 whole entry): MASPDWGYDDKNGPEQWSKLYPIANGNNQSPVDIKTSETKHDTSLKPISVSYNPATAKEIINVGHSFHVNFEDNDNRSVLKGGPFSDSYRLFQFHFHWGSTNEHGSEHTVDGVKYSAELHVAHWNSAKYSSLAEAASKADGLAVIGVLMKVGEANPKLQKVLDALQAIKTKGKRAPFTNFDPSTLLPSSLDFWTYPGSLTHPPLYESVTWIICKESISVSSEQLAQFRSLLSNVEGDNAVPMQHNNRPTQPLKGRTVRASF

Carbonic anhydrase 9 = Carbonic anhydrase 9 (Homo sapiens, UniProt Q16790); experiment: Inhibition of human recombinant carbonic anhydrase 9 by stopped flow CO2 hydration method
Carbonic anhydrase 2 = Carbonic anhydrase 2 (Homo sapiens, UniProt P00918); experiment: Inhibition of human recombinant carbonic anhydrase 2 by stopped flow CO2 hydration method

Carbonic anhydrase 12, sequence (O43570 whole entry): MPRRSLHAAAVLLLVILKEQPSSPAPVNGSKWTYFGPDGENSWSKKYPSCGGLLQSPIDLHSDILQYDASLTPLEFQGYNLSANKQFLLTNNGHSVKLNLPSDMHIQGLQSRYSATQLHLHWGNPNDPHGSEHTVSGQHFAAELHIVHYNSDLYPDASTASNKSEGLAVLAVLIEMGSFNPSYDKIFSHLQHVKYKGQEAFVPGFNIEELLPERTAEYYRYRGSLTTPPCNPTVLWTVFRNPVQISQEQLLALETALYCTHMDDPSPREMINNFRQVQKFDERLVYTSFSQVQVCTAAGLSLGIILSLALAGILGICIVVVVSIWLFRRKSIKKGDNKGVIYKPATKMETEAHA

Question: `C=CCN1C(=O)C=C(C)OS1(=O)=O` was tested. Which Ki (Carbonic anhydrase 12) did it give?
Answer: The Ki was 0.103 µM.

Question: What about the Ki (Carbonic anhydrase 1) of the same molecule?
Answer: The Ki was > 20 µM.

Question: What about the Ki (Carbonic anhydrase 9) of the same molecule?
Answer: The Ki was 0.114 µM.

Question: And the Ki (Carbonic anhydrase 2)?
Answer: The Ki was > 20 µM.

Question: How did the Ki (Carbonic anhydrase 1) turn out when `C=CCOC1=NS(=O)(=O)OC(C)=C1` was run?
Answer: The Ki was > 20 µM.

Question: And the Ki (Carbonic anhydrase 9)?
Answer: The Ki was 0.199 µM.

Question: And the Ki (Carbonic anhydrase 2)?
Answer: Its Ki is > 20 µM.

Question: Which results are given for `CC1=CC(OCc2cccc(F)c2)=NS(=O)(=O)O1`?
Answer: Ki (Carbonic anhydrase 1): > 20 µM; Ki (Carbonic anhydrase 9): > 20 µM; Ki (Carbonic anhydrase 2): > 20 µM

Question: What does the source list for `CC1=CC(=O)N(CC(=O)c2ccccc2)S(=O)(=O)O1`?
Answer: Ki (Carbonic anhydrase 1): > 20 µM; Ki (Carbonic anhydrase 9): 0.0057 µM; Ki (Carbonic anhydrase 2): > 20 µM

Question: Which Ki (Carbonic anhydrase 1) does the source give for `CC1=CC(=O)N(Cc2ccc(C#N)cc2)S(=O)(=O)O1` here?
Answer: Its Ki is > 20 µM.

Question: What about the Ki (Carbonic anhydrase 9) of the same molecule?
Answer: The Ki was 0.309 µM.

Question: What about the Ki (Carbonic anhydrase 2) of the same molecule?
Answer: The Ki was > 20 µM.

Question: With `CC1=CC(OCc2ccccc2[N+](=O)[O-])=NS(=O)(=O)O1` as the molecule, how does the Ki (Carbonic anhydrase 1) read?
Answer: The Ki was > 20 µM.

Question: What about the Ki (Carbonic anhydrase 9) of the same molecule?
Answer: Its Ki is 0.041 µM.

Question: What about the Ki (Carbonic anhydrase 2) of the same molecule?
Answer: Its Ki is > 20 µM.

Question: With `C#CCOC1=NS(=O)(=O)OC(C)=C1` as the molecule, how does the Ki (Carbonic anhydrase 1) read?
Answer: Its Ki is > 20 µM.

Question: And the Ki (Carbonic anhydrase 2)?
Answer: The Ki was > 20 µM.

Question: Which results are given for `CC1=CC(=O)N(Cc2ccccc2[N+](=O)[O-])S(=O)(=O)O1`?
Answer: Ki (Carbonic anhydrase 1): > 20 µM; Ki (Carbonic anhydrase 9): 0.041 µM; Ki (Carbonic anhydrase 2): > 20 µM

Question: Which results are given for `CCOC(=O)CN1C(=O)C=C(C)OS1(=O)=O`?
Answer: Ki (Carbonic anhydrase 1): > 20 µM; Ki (Carbonic anhydrase 9): 0.047 µM; Ki (Carbonic anhydrase 2): > 20 µM

Question: `CC1=CC(OCc2cccc([N+](=O)[O-])c2)=NS(=O)(=O)O1` was tested. Which Ki (Carbonic anhydrase 1) did it give?
Answer: Its Ki is > 20 µM.

Question: What about the Ki (Carbonic anhydrase 9) of the same molecule?
Answer: The Ki was > 20 µM.

Question: And the Ki (Carbonic anhydrase 2)?
Answer: Its Ki is > 20 µM.

Question: `CCOC(=O)COC1=NS(=O)(=O)OC(C)=C1` was tested. Which Ki (Carbonic anhydrase 1) did it give?
Answer: The Ki was > 20 µM.

Question: And the Ki (Carbonic anhydrase 9)?
Answer: Its Ki is 0.043 µM.

Question: And the Ki (Carbonic anhydrase 2)?
Answer: The Ki was > 20 µM.

Question: How did the Ki (Carbonic anhydrase 1) turn out when `CC(=O)CN1C(=O)C=C(C)OS1(=O)=O` was run?
Answer: Its Ki is 15.6 µM.

Question: And the Ki (Carbonic anhydrase 9)?
Answer: Its Ki is > 20 µM.

Question: What about the Ki (Carbonic anhydrase 2) of the same molecule?
Answer: Its Ki is 2.18 µM.

Question: For `CC1=CC(=O)N(Cc2c(F)cccc2F)S(=O)(=O)O1`, which Ki (Carbonic anhydrase 1) is on record?
Answer: Its Ki is > 20 µM.

Question: And the Ki (Carbonic anhydrase 9)?
Answer: The Ki was > 20 µM.

Question: And the Ki (Carbonic anhydrase 2)?
Answer: The Ki was > 20 µM.

Question: Which results are given for `CC1=CC(=O)N(Cc2cccc([N+](=O)[O-])c2)S(=O)(=O)O1`?
Answer: Ki (Carbonic anhydrase 1): > 20 µM; Ki (Carbonic anhydrase 9): 0.267 µM; Ki (Carbonic anhydrase 2): > 20 µM

Question: `CC1=CC(OCC(=O)c2ccccc2)=NS(=O)(=O)O1` was tested. Which Ki (Carbonic anhydrase 1) did it give?
Answer: The Ki was > 20 µM.

Question: And the Ki (Carbonic anhydrase 9)?
Answer: The Ki was 0.0153 µM.

Question: And the Ki (Carbonic anhydrase 2)?
Answer: The Ki was > 20 µM.

Question: How did the Ki (Carbonic anhydrase 1) turn out when `CC1=CC(=O)N(Cc2cccc(F)c2)S(=O)(=O)O1` was run?
Answer: The Ki was > 20 µM.

Question: And the Ki (Carbonic anhydrase 9)?
Answer: Its Ki is 0.275 µM.

Question: And the Ki (Carbonic anhydrase 2)?
Answer: The Ki was > 20 µM.

Question: Which Ki (Carbonic anhydrase 1) does the source give for `CC1=CC(=O)N(Cc2ccccc2F)S(=O)(=O)O1` here?
Answer: The Ki was > 20 µM.

Question: What about the Ki (Carbonic anhydrase 9) of the same molecule?
Answer: Its Ki is 0.285 µM.

Question: What about the Ki (Carbonic anhydrase 2) of the same molecule?
Answer: The Ki was > 20 µM.

Question: What does the source list for `CC1=CC(=O)N(Cc2cccc(Br)c2)S(=O)(=O)O1`?
Answer: Ki (Carbonic anhydrase 1): > 20 µM; Ki (Carbonic anhydrase 9): 0.284 µM; Ki (Carbonic anhydrase 2): > 20 µM

Question: Which results are given for `CC(=O)COC1=NS(=O)(=O)OC(C)=C1`?
Answer: Ki (Carbonic anhydrase 1): 2.49 µM; Ki (Carbonic anhydrase 9): > 20 µM; Ki (Carbonic anhydrase 2): > 20 µM

Question: How did the Ki (Carbonic anhydrase 1) turn out when `CC1=CC(=O)N(CC(=O)c2cccc([N+](=O)[O-])c2)S(=O)(=O)O1` was run?
Answer: The Ki was 1.3 µM.

Question: And the Ki (Carbonic anhydrase 9)?
Answer: The Ki was 0.0168 µM.

Question: What about the Ki (Carbonic anhydrase 2) of the same molecule?
Answer: The Ki was 0.0255 µM.

Question: `CC1=CC(OCC#N)=NS(=O)(=O)O1` was tested. Which Ki (Carbonic anhydrase 1) did it give?
Answer: Its Ki is 2.9 µM.

Question: And the Ki (Carbonic anhydrase 9)?
Answer: Its Ki is 0.047 µM.

Question: What about the Ki (Carbonic anhydrase 2) of the same molecule?
Answer: The Ki was > 20 µM.

Question: How did the Ki (Carbonic anhydrase 1) turn out when `CC1=CC(OCc2ccccc2Br)=NS(=O)(=O)O1` was run?
Answer: Its Ki is > 20 µM.

Question: And the Ki (Carbonic anhydrase 9)?
Answer: The Ki was 0.249 µM.

Question: What about the Ki (Carbonic anhydrase 2) of the same molecule?
Answer: The Ki was > 20 µM.
